From patent EP0094644A1, “Utilization of a cholecalciferol derivative” (F. HOFFMANN-LA ROCHE & CO. Aktiengesellschaft, priority 1982, dated 1983)

Experiments:
Format in all cases: in vivo
[1] = tested on: Weissen Leghorn-Küken; test: Intestinal calcium absorption in chicks (serum 45Ca); conditions: for Serum ^45Ca: serum 45 min after isotope
Source text: b) Intestinale Calcium-Absorption bei Küken
Weissen Leghorn-Küken wird während 21 Tagen unter UV-freier Bestrahlung eine Vitamin D-arme Diät gegeben. Eine Einzeldosis der Testverbindung, gelöst in Propylenglykol, wird den Tieren oral verabreicht. Danach werden zu verschiedenen Zeitpunkten 2 µCi ^45 Ca (Chlorid) oral verabreicht und die Serumradioaktivität 45 Minuten nach Verabreichung des Isotops gemessen. In jeder Versuchsperiode werden Kontrolltiere verwendet, denen nur das Vehikel verabreicht wird. In jeder Behandlungsgruppe und jeder Kontrollgruppe werden 10 oder 11 Küken verwendet.

[2] = tested on: Weissen Leghorn-Küken; test: Antirachitic activity in chicks (tibia ash weight); conditions: for Mittleres Tibiaaschengewicht: 21 days, vitamin D-deficient diet, vehicle control 120,7 ± 5,9
Source text: a) Antirachitische Aktivität
Weissen Leghorn-Küken wird unter UV-freier Beleuchtung eine Vitamin D-arme, 1% Calcium und 0,7% Phosphor enthaltende Diät gegeben. Die in Propylenglykol gelöste Testverbindung wird während 21 Tagen den am Anfang des Versuchs 1 oder 2 Tage alten Küken oral verabreicht. Kontrolltiere werden mit dem Vehikel behandelt. Die Küken werden am Tag nach dem letzten Behandlungstag seziert und das Tibiaaschengewicht wird ermittelt. Es werden 9 oder 10 Küken für jede Behandlungsgruppe und für die Kontrollgruppe verwendet. Die mittleren Tibiaaschengewichte ausgedrückt in mg sind in der nachfolgenden Tabelle I angegeben.

[3] = tested on: Männliche Charles River Ratten; test: Prevention of EHDP-induced mineralisation block in rats (epiphyseal plate width); conditions: for Mittlere Breite der Epiphysenplatte: 10 days with EHDP 2 mg/Ratte s.c., EHDP alone 1182 ± 51, no EHDP 440 ± 2
Protocol: c) Verhütung der durch EHDP-induzierten Blockierung der Mineralisierung bei Ratten
Männliche Charles River Ratten werden 10 Tage mit Dinatrium-äthan-1-hydroxy-1,1-diphosphonat (EHDP) behandelt. Die Verbindung wird in destilliertem Wasser in einer Konzentration von 2 mg/0,2 ml/Ratte jeden Tag subcutan verabreicht. Die fluorierte Verbindung wird in Propylenglykol jeden Tag oral verabreicht. Am Tag nach der letzten Behandlung werden die Ratten seziert und deren Tibia durch Silberimprägnierung der Knochensalze behandelt. Die Breite der Epiphysenplatte wird mit einem Mikroskop gemessen. Zur Ermittlung der Aktivität wird die dosisabhängige Verengerung der durch EHDP-Induktion erweiterten Epiphysenplatte gemessen. In jeder Behandlungsgruppe werden 10 Ratten verwendet. Es werden auch positive (EHDP allein) und negative (Vehikel allein) Kontrollgruppen von 10 Ratten in jedem Versuch verwendet.

[4] = 100 ng single oral dose, 24 Std., vehicle 992 ± 81
[5] = 100 ng single oral dose, 48 Std., vehicle 769 ± 90

SMILES | Serum ^45Ca [1, 4] | Serum ^45Ca [1, 5] | Serum ^45Ca ([1]; 200 ng single oral dose, 72 Std., vehicle 647 ± 69) | Mittleres Tibiaaschengewicht ([2]; 1 ng/Küken/Tag oral) | Mittleres Tibiaaschengewicht ([2]; 3 ng/Küken/Tag oral) | Mittleres Tibiaaschengewicht ([2]; 10 ng/Küken/Tag oral) | Mittleres Tibiaaschengewicht ([2]; 30 ng/Küken/Tag oral) | antirachitische Aktivität ([2]; summary in words of Tabelle I) | Mittlere Breite der Epiphysenplatte ([3]; 1 ng/Ratte/Tag oral) | Mittlere Breite der Epiphysenplatte ([3]; 3 ng/Ratte/Tag oral) | Mittlere Breite der Epiphysenplatte ([3]; 10 ng/Ratte/Tag oral) | Mittlere Breite der Epiphysenplatte ([3]; 30 ng/Ratte/Tag oral) | Calcifizierung der Tibiaepiphysenplatte ([3]; EHDP-blocked rats, summary in words of Tabelle III) | Serum ^45Ca ([1]; 100 ng single oral dose, 72 Std., vehicle 647 ± 69) | Serum ^45Ca ([1]; 100 ng single oral dose, 96 Std., vehicle 586 ± 70) | lang andauernde intestinale Calcium-Absorption ([1]; duration after 100 ng Einzeldosis, oral)
C=C1/C(=C\C=C2/CCC[C@]3(C)[C@@H]([C@H](C)CCCC(C)(C)O)CC[C@@H]23)C[C@@H](O)C[C@@H]1O [Verbindung A, 1a,25-Dihydroxycholecalciferol, reference compound] | 1800 ± 181 cpm/0,2 ml | 1006 ± 133 cpm/0,2 ml | 710 ± 62 cpm/0,2 ml |  |  |  |  |  |  |  |  |  |  |  |  | 
C=C1/C(=C\C=C2/CCC[C@]3(C)[C@@H]([C@H](C)CCC(F)(F)C(C)(C)O)CC[C@@H]23)C[C@@H](O)C[C@@H]1O [fluorierte Verbindung, 24,24-Difluor-la,25-dihydroxycholecalciferol] | 2064 ± 170 cpm/0,2 ml | 1539 ± 99 cpm/0,2 ml |  | 111,5 ± 4,7 mg | 151,1 ± 8,2 mg | 227,1 ± 8,2 mg | 244,8 ± 7,4 mg | beträchtliche antirachitische Aktivität | 839 ± 18 Mikron | 674 ± 18 Mikron | 540 ± 16 Mikron | 412 ± 9 Mikron | die Calcifizierung der Tibiaepiphysenplatte bei EHDP-blockierten Ratten bewirkt | 1164 ± 90 cpm/0,2 ml | 998 ± 61 cpm/0,2 ml | 96 Stunden
